Experimental data published in ChEMBL document CHEMBL1641394, “Terpenoids from the aerial parts of Parasenecio deltophylla” (J Nat Prod, 2010).

Tests used:
[1] = system: Radical scavenging activity; assay: Antioxidant activity assessed as DPPH radical scavenging activity; format: functional
[2] = Antioxidant activity assessed as ABTS radical scavenging activity by decolorization assay; format: functional
[3] = system: HL-60; assay: Cytotoxicity against human HL60 by MTT assay; format: functional, cell-based
[4] = system: HepG2; assay: Cytotoxicity against human HepG2 by MTT assay; format: functional, cell-based

| SMILES | IC50 [1] | IC50 [2] | IC50 [3] | IC50 [4] |
| --- | --- | --- | --- | --- |
| C/C=C(/C)C(=O)OCc1c(C(C)=O)c(O)c(OC)c2c1[C@@H](C)CC=C2 | > 200 µM | > 200 µM |  |  |
| CO[C@@]12[C@H](COC(N)=O)C3=C(C(=O)C(C)=C(N)C3=O)N1C[C@@H]1N[C@@H]12 [MITOMYCIN] |  |  | 1.5 µM | 5.4 µM |
| C/C=C(/C)C(=O)OCc1c(C(C)=O)c(O)c(OC)c2c1[C@@H](C)[C@@H](O)C=C2 | > 200 µM | > 200 µM |  |  |
| C/C=C(/C)C(=O)OCc1c(C(C)=O)c(O)c(OC)c2c1[C@@H](C)[C@@H]1O[C@@H]1[C@H]2O | > 200 µM | > 200 µM |  |  |

Now from value to compound, other results behind:

| IC50 [1] | IC50 [2] | SMILES | IC50 [3] | IC50 [4] |
| --- | --- | --- | --- | --- |
| > 200 µM | > 200 µM | C/C=C(/C)C(=O)OCc1c2c(c(OC)c3occ(C)c13)C(=O)[C@H]1O[C@H]1[C@@H]2C | 49.8 µM | 27.8 µM |
| 13.2 µM | 13.2 µM | Cc1c(C)c2c(c(C)c1O)CCC(C)(C(=O)O)O2 (configuration not stated) [TROLOX] |  |  |
| > 200 µM | > 200 µM | CCCCCCCCCCCCCCCC(=O)O[C@H]1CC(C)(C)C2=CC(=O)O[C@]2(C)C1 | 47.5 µM |  |
